For series [1], the system named is adult ADD patients with vasospasm. Description: Attention Deficit Disorder siblings treated with vasodilators, serial TCD and neuropsychological testing. The format is in vivo, human patients. Conditions: male; for right MCA mean flow velocity: baseline 0.86; for left MCA mean flow velocity: baseline 0.92. Here is the method:
Both were administered a battery of tests which measured neuropsychological functioning and personality variables.
On referral for neurological evaluation, mild physical and significant objective testing abnormalities were found. […] Both, further, had difficulty performing a Tandem Gait with complete ease. The physical exam was otherwise normal. An EEG and computerized EEG were performed and were abnormal.
Both individuals were treated with vasodilating medications for 10 months and received psychotherapy and vocational counseling. Relaxation and hypnotherapy were also used to develop visualization skills for both recall of successful social and work experiences and to visualize successful outcomes of activities to do.
In serial testing, the […] underwent TCD's on three separate occasions on the same day. […] By the end of the day, […] identified that […] could read, understand and retain news articles and magazine articles. […] could also follow a television show throughout. […] could do neither at the beginning of the day.
On the basis of the objective disorders of flow and the patient's reported and observed improvement during the trial episode of administering medications to decrease the observed vasospasm, we started the sibling on vasodilators. […] This regimen was made up of a low dose Calcium Channel Blocker, and an ACE inhibitor along with low dose Nitroglycerine and a Clonidine patch.

For series [2], the system named is patient with migraine, schizophrenic reaction and vasospasm. In words: Case study: psychosis caused by cerebral ischemia, EEG and TCD. The format is in vivo, human patient. Conditions: single patient.
The subject of series [3] is patients with cerebral vasospasm. Description: Vasoactive medications tried on Applicant's patients with vasospasm, monitored by Transcranial Doppler (TCD), exam and symptoms.
From the text: As headache was a major complaint of many of Applicant's patients, we tried these medications out including Imitrex (Sumatriptan), IM Toradol (Ketoralac) and other medications under direct monitoring. […] Rather, it was expected that one or another set of medications might help point the way into using specific classes of medications or approaches. Accordingly, each of these patients. equivalent of a large number of patients, were monitored continuously across the day.
With respect to the different monitoring tools, some were more helpful than others. […] The Brain Stem Auditory Evoked Response and other evoked potential tests were very insensitive tools for monitoring, because of the length of time required to perform the test after short-acting medications were given in IM or sublingual or nasal spray administration route. […] These symptoms included not only headache, but also sensations of confusion, balance disorder, abnormal Romberg or Tandem Gait of other neurological abnormalities.
As headache was a major complaint of many of these patients, Applicant tried these medications out including Imitrex (Sumatriptan), IM Toradol (Ketoralac) and other medications under direct monitoring. […] Rather, it was expected that one or another set of medications might help point the way into using specific classes of medications or approaches. Accordingly, each of these patients, equivalent of a large number of patients, is monitored continuously across the day.
With respect to the different monitoring tools, some were more helpful than others. […] The Brain Stem Auditory Evoked Response and other evoked potential tests were very insensitive tools for monitoring, because of the length of time required to perform the test after short-acting medications were given in IM or sublingual or nasal spray administration route.
Series [4] concerns migraine patients with vasospasm on TCD. In words: Migraine patients treated with Nitroglycerine patches, TCD and neurological exam. Type of series: in vivo, human patients. As to the method:
All patients are evaluated with a complete history, physical exam, and neurological exam by a Board Certified Neurologist. All patients have blood work consisting of a CBC with differential count and platelets as well as an SMA-30 obtained. All whiplash related patients underwent a CT or MRI of the brain, EEG and qEEG, B-mode and spectral analysis ultrasound of the subclavian, carotid, and vertebral circulation, and Transcranial Doppler (TCD) examination of the intracranial circulation. In some situations, repetitive Transcranial Doppler examinations are performed on the same patient in the same day. Initially, these tests are performed by maintaining the probe on the patient's head through the course of several hours, but later the technique involves using the same probe, patient position, technician, depth, and cranial window with serial but interrupted exams across the course of the day. In all cases, the highest spectral frequencies are recorded, as well as repeat exams at the same depth and window as the baseline pre-medication windows were obtained. Immediately prior to initial TCD exams, a neurological exam is carried out. At the time of initiation of treatment for the cerebral vasospasm, at which time vasoactive medications are administered after the baseline TCD and neuro exam are obtained, repeat TCD exams are carried out and when medication effects on the intracranial circulation were identified, repeat neurological exams are obtained. In 5 patients, P300 are obtained prior to initiation of treatment and, again, several months later. The same methodology is used in those patients referred for evaluation of possible MS-like syndrome as recognized in the recent global settlement. With these patients, triple evoked potentials, EEG and qEEG, and a vascular evaluation as outlined above is carried out in all patients, and in 11 who decided to attempt treatment with vasoactive drugs, the methodology outlined above for initiation of as in the MVA-related post-concussion syndrome are used. 10 of the 19 MS-like syndrome patients additionally had brain MRI tests performed. […]

Setting [5] is: second TCD of the day after repetitive applications.
Setting [6] is: third TCD of the day after repetitive applications.
The mark [7] stands for this setting: human, in vivo, listed as Nitroglycerine.

“Also recorded” adds a separate entry of the source.

On to `O=[N+]([O-])OCC(CO[N+](=O)[O-])O[N+](=O)[O-]` [Nitroglycerin], for which, in series [1] (same day serial testing), the “concentration (self-assessment)” value was “significant improvement in concentration” and the “neurological exam (balance testing)” value is recorded as “exam progressively normalized”. In addition, in series [1] (setting [5]), the “right MCA mean flow velocity” value came out at 0.79 meters/second and the “left MCA mean flow velocity” value came out at 0.84 meters/second. Further, in series [1] (setting [6]), the “right MCA mean flow velocity” value is 0.72 meters/second and the “left MCA mean flow velocity” value was 0.79 meters/second. In series [2], the headaches / migraines entry was “complete resolution of their daily headaches; also recorded: headaches completely resolved as did memory disturbances, concentration problems and emotional lability; also recorded: responded promptly”. In series [3] (human, in vivo), the “effect on vessels seen on TCD / ultrasound (vasoconstriction or dilatation)” value is “resulted in vascular dilatation”; the headache result was “improvement in the patient's headache”; the “neurological exam and other neurological abnormalities” value was “improvement of any other neurological abnormalities”. In series [3] (setting [7]), the headache result is “alleviated or treated the headache”; the “neurological exam and other neurological abnormalities” value was “clinical and neurological exam improvement”. Besides, the “transient supersensitivity (transient worsening of the vasospasm) on early administration” value in series [3] (witnessed on TCD or clinically) is listed as “can give transient severe vasoconstrictive episodes”. The “follow-up TCD at the end of application of the patch” value in series [4] (3 patients) is on record as “confirmed reduction of the vasospasm”. In addition, the “lower extremity hyper-reflexia, Rhomberg and tandem gait abnormalities” value in series [4] (human, in vivo) is “all resolved”. Moreover, in series [4] (patches applied for 10 minutes to 1 hour, 5 patients), the headache entry is “headache resolved”.
